Results from PubChem BioAssay AID328 (DTP/NCI, 2004).
Values joined by “and” are separate entries in the source; they are usually repeats but may differ in a detail not shown here. Identical values can stand only once. Inconclusive results and toxic doses are left out.

Tested on: BDF1 mice, P388 leukemia ip, median survival T/C
Assay: NCI In Vivo Anticancer Drug Screen. Data for tumor model P388 Leukemia (intraperitoneal) in B6D2F1 (BDF1) mice
Details: endpoint: median survival time, higher = longer survival
Procedure, shortened: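 Compound-treated tumour-bearing mice were compared with vehicle-treated controls. Survival was recorded, and the value is the treated-group measurement divided by the control-group measurement (T/C).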

[1] = dose: 50.0 mg/kg/injection, schedule: Q01DX009 (ip), vehicle: saline with Tween-80
[2] = dose: 100.0 mg/kg/injection, schedule: Q01DX009 (ip), vehicle: saline with Tween-80
[3] = dose: 200.0 mg/kg/injection, schedule: Q01DX009 (ip), vehicle: saline with Tween-80
[4] = dose: 100.0 mg/kg/injection, schedule: Q01DX009 (ip), vehicle: Klucel (hydroxypropylcellulose) (HPC)
[5] = dose: 100.0 mg/kg/injection, schedule: Q04DX003 (ip), vehicle: Klucel (hydroxypropylcellulose) (HPC)
[6] = dose: 200.0 mg/kg/injection, schedule: Q01DX009 (ip), vehicle: Klucel (hydroxypropylcellulose) (HPC)
[7] = dose: 400.0 mg/kg/injection, schedule: Q01DX009 (ip), vehicle: Klucel (hydroxypropylcellulose) (HPC)
[8] = dose: 400.0 mg/kg/injection, schedule: Q04DX003 (ip), vehicle: Klucel (hydroxypropylcellulose) (HPC)
[9] = dose: 200.0 mg/kg/injection, schedule: Q04DX003 (ip), vehicle: Klucel (hydroxypropylcellulose) (HPC)

CCOC(=O)N(CCN(C(=O)OCC)c1ccccc1)c1ccccc1
T/C [1]: 98 % of control | T/C [2]: 108 % of control | T/C [3]: 110 % of control

CCC1CCCC1O (stereo not drawn)
T/C [1]: 101 % of control | T/C [2]: 102 % of control | T/C [3]: 100 % of control

Nc1nc(N)c2c(n1)CCC(S(=O)(=O)c1ccc3ccccc3c1)C2 (stereo not drawn)
T/C [1]: 103 % of control and 114 % of control | T/C [2]: 122 % of control and 124 % of control | T/C [3]: 123 % of control

CCOC(O)C(Cl)(Cl)Cl (stereo not drawn)
T/C (dose: 100.0 mg/kg/injection, schedule: Q01DX001 (ip), vehicle: saline with Tween-80): 100 % of control | T/C (dose: 200.0 mg/kg/injection, schedule: Q01DX001 (ip), vehicle: saline with Tween-80): 100 % of control | T/C (dose: 400.0 mg/kg/injection, schedule: Q01DX001 (ip), vehicle: saline with Tween-80): 100 % of control

CC(C)C(OCc1ccccc1)C(=O)O (stereo not drawn)
T/C (dose: 50.0 mg/kg/injection, schedule: Q04DX003 (ip), vehicle: saline with Tween-80): 100 % of control | T/C (dose: 100.0 mg/kg/injection, schedule: Q04DX003 (ip), vehicle: saline with Tween-80): 108 % of control | T/C (dose: 200.0 mg/kg/injection, schedule: Q04DX003 (ip), vehicle: saline with Tween-80): 108 % of control | T/C (dose: 400.0 mg/kg/injection, schedule: Q04DX003 (ip), vehicle: saline with Tween-80): 108 % of control

Clc1cccc(Cl)c1Br
T/C (dose: 50.0 mg/kg/injection, schedule: Q04DX003 (ip), vehicle: gum acacia): 95 % of control | T/C [4]: 100 % of control | T/C [5]: 88 % of control | T/C (dose: 100.0 mg/kg/injection, schedule: Q04DX003 (ip), vehicle: gum acacia): 108 % of control | T/C [6]: 109 % of control | T/C (dose: 200.0 mg/kg/injection, schedule: Q04DX003 (ip), vehicle: gum acacia): 100 % of control | T/C [7]: 90 % of control | T/C [8]: 115 % of control

Cc1c(Cl)c(Cl)c(C)c(Cl)c1Cl
T/C [5]: 94 % of control | T/C [9]: 100 % of control | T/C [8]: 100 % of control

CCC(=O)Nc1cc(Cl)ccc1C
T/C (dose: 50.0 mg/kg/injection, schedule: Q04DX003 (ip), vehicle: Klucel (hydroxypropylcellulose) (HPC)): 118 % of control | T/C [4]: 109 % of control | T/C [5]: 109 % of control | T/C [6]: 90 % of control | T/C [9]: 104 % of control | T/C [7]: 90 % of control | T/C [8]: 100 % of control

CCCCCCCCCC(O)CCCCCC (stereo not drawn)
T/C (dose: 100.0 mg/kg/injection, schedule: Q01DX009 (ip), vehicle: other): 105 % of control | T/C (dose: 100.0 mg/kg/injection, schedule: Q04DX003 (ip), vehicle: other): 95 % of control | T/C (dose: 200.0 mg/kg/injection, schedule: Q04DX003 (ip), vehicle: other): 118 % of control

c1ccc(-c2nnn(-c3ccccc3)n2)cc1
T/C [1]: 93 % of control | T/C [3]: 93 % of control

O=C1C(N2CC2)=C(N2CCCC(O)C2)C(=O)C(N2CC2)=C1N1CCCC(O)C1 (stereo not drawn)
T/C (dose: 1.0 mg/kg/injection, schedule: Q01DX009 (ip), vehicle: saline): 195 % of control | T/C (dose: 2.0 mg/kg/injection, schedule: Q01DX009 (ip), vehicle: saline): 99 % of control

Clc1ccc(C2CC3CCCCN3O2)cc1 (stereo not drawn)
T/C [1]: 90 % of control | T/C [2]: 99 % of control | T/C [3]: 90 % of control

CCOC(=O)C(N)CSC(c1ccccc1)(c1ccccc1)c1ccccc1 (stereo not drawn)
T/C (dose: 9.6 mg/kg/injection, schedule: Q04DX003 (ip), vehicle: saline): 95 % of control | T/C (dose: 14.0 mg/kg/injection, schedule: Q04DX003 (ip), vehicle: saline): 100 % of control | T/C (dose: 33.0 mg/kg/injection, schedule: Q04DX003 (ip), vehicle: saline): 122 % of control | T/C (dose: 50.0 mg/kg/injection, schedule: Q04DX003 (ip), vehicle: saline): 155 % of control | T/C (dose: 100.0 mg/kg/injection, schedule: Q04DX003 (ip), vehicle: saline): 175 % of control | T/C (dose: 132.0 mg/kg/injection, schedule: Q04DX003 (ip), vehicle: saline): 181 % of control | T/C (dose: 200.0 mg/kg/injection, schedule: Q04DX003 (ip), vehicle: saline): 181 % of control and 215 % of control | T/C (dose: 300.0 mg/kg/injection, schedule: Q04DX003 (ip), vehicle: saline): 163 % of control

CCOC(=O)c1c[nH]c2cc(Cl)ccc2c1=O
T/C (dose: 75.0 mg/kg/injection, schedule: Q04DX003 (ip), vehicle: Klucel (hydroxypropylcellulose) (HPC)): 96 % of control
